From paper PMC9841527 (Journal of Medicinal Chemistry, 2022)

How the values were obtained:
[1] = target: T1, CamA (Clostridioides difficile, UniProt Q183J3); assay type: biochemical
T1 sequence (Q183J3 1-577): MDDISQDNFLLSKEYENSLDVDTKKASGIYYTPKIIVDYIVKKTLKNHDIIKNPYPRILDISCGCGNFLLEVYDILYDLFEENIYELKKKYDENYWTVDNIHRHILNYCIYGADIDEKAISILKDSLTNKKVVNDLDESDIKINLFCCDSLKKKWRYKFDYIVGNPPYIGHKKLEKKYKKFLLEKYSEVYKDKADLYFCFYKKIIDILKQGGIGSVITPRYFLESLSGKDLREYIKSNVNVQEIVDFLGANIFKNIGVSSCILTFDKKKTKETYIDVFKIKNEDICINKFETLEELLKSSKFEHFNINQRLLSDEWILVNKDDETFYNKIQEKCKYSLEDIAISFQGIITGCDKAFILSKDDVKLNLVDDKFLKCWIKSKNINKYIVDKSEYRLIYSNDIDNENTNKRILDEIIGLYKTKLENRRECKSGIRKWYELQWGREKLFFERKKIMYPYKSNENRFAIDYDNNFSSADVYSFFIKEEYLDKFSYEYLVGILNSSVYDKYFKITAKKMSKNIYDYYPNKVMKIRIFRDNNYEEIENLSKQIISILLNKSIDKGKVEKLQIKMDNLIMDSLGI

[2] = target: T1, CamA; assay: Isothermal titration calorimetry; assay type: binding
[3] = target: PRMT1 (Homo sapiens, UniProt Q99873); assay: Selectivity assay, PRMT1; assay type: biochemical; details: compound 10 μM, 3H-SAM 1 μM
[4] = target: DOT1L (Homo sapiens, UniProt Q8TEK3); assay: Selectivity assay, DOT1L; assay type: biochemical; details: compound 10 μM, 3H-SAM 1 μM
[5] = target: T2, G9a (Homo sapiens, UniProt Q96KQ7); assay: Selectivity assay, G9a; assay type: biochemical; details: compound 10 μM, 3H-SAM 1 μM
T2 sequence (Q96KQ7 1-1210): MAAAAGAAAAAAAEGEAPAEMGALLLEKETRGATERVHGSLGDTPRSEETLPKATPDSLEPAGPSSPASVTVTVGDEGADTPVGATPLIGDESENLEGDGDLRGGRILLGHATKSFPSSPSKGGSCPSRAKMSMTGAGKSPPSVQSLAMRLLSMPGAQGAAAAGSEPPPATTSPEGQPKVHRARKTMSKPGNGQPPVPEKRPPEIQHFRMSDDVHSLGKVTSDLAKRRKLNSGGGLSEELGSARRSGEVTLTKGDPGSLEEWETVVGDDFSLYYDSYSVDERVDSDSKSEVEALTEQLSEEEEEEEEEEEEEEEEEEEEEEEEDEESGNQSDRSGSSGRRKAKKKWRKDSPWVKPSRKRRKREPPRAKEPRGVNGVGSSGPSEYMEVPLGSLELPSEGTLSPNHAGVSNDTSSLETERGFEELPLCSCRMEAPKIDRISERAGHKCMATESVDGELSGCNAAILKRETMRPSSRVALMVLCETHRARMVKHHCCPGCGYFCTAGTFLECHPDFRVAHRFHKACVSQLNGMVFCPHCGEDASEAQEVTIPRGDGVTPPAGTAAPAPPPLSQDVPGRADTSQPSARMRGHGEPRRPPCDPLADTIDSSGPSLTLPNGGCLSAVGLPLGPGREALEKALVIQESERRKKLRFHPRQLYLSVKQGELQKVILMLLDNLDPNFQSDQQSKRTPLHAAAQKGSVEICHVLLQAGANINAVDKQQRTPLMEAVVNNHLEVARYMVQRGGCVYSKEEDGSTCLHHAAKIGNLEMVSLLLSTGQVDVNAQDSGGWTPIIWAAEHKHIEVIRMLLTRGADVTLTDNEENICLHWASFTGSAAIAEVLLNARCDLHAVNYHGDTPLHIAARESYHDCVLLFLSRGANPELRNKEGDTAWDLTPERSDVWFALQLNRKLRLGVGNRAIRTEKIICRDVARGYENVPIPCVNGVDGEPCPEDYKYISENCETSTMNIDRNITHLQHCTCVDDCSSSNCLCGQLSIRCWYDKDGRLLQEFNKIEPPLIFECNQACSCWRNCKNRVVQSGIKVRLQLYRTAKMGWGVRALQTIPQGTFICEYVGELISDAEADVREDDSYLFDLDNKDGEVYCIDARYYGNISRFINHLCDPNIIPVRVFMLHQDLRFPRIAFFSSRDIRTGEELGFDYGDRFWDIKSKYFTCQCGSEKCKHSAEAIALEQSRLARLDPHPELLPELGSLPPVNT

[6] = target: T3, A1 adenosine receptor (A1AR) (Homo sapiens, UniProt P30542); assay: A1AR agonist radioligand binding assay; details: compound 10 μM, [3H]CCPA 1 nM, transfected CHO cell membranes
T3 sequence (P30542 1-326): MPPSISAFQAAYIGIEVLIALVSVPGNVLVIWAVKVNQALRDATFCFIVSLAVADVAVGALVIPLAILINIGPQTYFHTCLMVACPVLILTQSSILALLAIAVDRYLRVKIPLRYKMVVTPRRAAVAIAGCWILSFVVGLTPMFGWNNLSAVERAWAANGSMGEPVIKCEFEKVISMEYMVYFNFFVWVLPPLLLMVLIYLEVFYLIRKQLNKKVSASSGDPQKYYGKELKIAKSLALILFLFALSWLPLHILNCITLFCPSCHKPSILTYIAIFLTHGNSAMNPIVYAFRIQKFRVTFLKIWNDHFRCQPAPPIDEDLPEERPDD

[7] = target: MettL3-MettL14 (Homo sapiens, UniProt Q86U44); assay: Selectivity assay, MettL3-MettL14; assay type: biochemical; details: [I] = 10 μM, [SAM] = 20 μM, 5 mM NaCl, or CamA conditions
[8] = target: PCIF1 (Homo sapiens, UniProt Q9H4Z3); assay type: biochemical
[9] = target: CcrM (Caulobacter vibrioides, UniProt P0CAW2); assay type: biochemical, Caulobacter crescentus
[10] = target: T4, Dam (Escherichia coli, UniProt P0AEE8); assay type: biochemical
T4 sequence (P0AEE8 1-278): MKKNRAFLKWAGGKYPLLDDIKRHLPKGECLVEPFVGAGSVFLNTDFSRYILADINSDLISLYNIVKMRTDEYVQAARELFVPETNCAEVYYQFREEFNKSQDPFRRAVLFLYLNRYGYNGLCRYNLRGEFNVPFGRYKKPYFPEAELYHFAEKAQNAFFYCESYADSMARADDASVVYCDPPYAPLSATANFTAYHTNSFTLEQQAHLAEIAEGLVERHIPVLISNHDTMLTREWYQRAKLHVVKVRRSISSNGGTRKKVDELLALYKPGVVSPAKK

[11] = target: Dnmt3a-Dnmt3L (Mus musculus, UniProt O88508); assay type: biochemical

Sequence of PCIF1 (Q9H4Z3 whole entry): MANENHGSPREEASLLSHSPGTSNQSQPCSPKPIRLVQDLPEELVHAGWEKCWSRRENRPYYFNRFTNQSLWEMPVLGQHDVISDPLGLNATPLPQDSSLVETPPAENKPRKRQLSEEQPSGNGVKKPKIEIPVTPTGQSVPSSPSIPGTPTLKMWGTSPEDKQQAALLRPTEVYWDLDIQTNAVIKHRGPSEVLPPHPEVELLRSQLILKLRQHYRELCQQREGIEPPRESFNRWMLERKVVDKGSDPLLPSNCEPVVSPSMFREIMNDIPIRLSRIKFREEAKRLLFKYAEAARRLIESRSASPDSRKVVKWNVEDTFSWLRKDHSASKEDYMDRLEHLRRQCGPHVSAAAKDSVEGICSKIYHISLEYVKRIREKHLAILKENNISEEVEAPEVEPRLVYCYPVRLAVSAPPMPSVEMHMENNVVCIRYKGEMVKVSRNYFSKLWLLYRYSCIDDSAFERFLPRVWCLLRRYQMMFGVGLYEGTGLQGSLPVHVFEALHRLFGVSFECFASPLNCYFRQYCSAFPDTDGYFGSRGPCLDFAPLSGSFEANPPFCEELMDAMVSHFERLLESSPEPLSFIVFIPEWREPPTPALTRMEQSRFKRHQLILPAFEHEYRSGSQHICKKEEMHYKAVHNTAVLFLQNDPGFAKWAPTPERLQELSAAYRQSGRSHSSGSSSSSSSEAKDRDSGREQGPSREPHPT
Sequence of DOT1L (Q8TEK3 whole entry): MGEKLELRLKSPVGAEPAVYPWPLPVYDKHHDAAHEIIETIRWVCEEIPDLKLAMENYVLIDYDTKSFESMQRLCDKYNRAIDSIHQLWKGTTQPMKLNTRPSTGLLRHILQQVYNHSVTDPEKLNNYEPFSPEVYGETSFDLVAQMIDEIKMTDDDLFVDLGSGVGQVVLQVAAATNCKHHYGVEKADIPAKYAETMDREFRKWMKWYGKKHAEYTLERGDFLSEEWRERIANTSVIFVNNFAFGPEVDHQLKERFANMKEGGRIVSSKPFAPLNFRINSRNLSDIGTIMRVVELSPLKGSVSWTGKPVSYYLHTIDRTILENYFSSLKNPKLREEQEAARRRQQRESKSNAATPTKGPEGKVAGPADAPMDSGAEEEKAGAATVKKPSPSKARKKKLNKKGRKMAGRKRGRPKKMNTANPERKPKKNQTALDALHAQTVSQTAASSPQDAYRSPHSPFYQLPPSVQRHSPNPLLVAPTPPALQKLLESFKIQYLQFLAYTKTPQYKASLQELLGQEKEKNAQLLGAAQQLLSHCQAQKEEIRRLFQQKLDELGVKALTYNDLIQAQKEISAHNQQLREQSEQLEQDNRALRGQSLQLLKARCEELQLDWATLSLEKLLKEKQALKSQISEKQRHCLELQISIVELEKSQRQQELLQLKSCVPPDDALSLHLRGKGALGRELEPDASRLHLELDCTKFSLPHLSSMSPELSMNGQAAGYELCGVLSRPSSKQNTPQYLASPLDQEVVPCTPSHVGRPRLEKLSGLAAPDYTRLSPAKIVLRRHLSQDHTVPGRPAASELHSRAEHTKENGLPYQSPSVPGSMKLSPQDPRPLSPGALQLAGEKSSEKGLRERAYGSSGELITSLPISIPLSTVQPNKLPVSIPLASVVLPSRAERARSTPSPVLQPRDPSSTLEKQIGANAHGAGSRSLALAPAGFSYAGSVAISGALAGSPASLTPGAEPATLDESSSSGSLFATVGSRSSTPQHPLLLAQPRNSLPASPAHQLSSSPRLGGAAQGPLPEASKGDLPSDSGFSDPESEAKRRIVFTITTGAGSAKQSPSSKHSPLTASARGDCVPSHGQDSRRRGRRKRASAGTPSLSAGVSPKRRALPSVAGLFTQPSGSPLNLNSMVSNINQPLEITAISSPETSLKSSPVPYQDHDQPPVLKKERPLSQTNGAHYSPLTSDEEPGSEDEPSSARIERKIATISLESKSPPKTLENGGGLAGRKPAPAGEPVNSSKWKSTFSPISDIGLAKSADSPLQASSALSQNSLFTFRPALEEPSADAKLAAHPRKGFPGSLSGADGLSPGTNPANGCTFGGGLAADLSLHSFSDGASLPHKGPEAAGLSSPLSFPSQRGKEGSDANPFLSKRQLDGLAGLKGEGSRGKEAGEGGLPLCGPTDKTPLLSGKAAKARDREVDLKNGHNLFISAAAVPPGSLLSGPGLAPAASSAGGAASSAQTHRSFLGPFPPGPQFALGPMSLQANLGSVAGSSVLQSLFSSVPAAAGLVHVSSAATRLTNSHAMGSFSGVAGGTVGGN
Sequence of CcrM (P0CAW2 whole entry): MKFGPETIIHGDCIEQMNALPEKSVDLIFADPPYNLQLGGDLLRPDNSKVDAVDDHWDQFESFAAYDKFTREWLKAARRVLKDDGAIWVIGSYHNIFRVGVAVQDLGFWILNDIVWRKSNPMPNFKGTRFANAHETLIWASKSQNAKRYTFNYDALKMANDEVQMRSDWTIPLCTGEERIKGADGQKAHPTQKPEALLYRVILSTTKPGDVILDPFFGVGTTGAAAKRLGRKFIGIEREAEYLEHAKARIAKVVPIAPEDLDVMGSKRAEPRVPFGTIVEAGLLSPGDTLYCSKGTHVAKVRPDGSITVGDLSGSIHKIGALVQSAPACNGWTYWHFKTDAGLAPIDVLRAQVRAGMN
Sequence of PRMT1 (Q99873 whole entry): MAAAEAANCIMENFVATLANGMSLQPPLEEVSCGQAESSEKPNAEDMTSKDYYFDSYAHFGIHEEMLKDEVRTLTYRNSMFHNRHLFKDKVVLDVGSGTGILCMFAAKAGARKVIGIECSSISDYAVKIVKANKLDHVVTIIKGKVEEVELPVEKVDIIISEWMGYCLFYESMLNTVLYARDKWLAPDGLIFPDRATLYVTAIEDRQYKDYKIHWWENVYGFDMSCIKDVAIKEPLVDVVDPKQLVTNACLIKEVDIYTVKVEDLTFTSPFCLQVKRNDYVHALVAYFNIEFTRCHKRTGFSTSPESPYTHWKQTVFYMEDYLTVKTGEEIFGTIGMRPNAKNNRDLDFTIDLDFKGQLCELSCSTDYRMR
Sequence of MettL3-MettL14 (Q86U44 whole entry): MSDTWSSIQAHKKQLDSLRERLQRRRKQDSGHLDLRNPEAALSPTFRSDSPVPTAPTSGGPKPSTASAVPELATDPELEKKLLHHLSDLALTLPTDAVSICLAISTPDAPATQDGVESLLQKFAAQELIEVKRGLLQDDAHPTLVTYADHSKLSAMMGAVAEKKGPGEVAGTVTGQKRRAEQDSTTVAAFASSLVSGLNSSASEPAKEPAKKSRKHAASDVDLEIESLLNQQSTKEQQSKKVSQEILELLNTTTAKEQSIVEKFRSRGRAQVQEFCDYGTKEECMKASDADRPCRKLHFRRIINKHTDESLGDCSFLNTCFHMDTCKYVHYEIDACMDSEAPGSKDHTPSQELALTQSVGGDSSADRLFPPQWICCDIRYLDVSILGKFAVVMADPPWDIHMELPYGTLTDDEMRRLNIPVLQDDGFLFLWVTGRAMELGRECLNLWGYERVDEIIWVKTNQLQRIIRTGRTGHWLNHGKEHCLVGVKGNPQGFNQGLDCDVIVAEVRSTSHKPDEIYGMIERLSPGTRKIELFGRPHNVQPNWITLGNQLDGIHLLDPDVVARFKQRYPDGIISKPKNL
Sequence of MettL3-MettL14 (Q9HCE5 whole entry partner): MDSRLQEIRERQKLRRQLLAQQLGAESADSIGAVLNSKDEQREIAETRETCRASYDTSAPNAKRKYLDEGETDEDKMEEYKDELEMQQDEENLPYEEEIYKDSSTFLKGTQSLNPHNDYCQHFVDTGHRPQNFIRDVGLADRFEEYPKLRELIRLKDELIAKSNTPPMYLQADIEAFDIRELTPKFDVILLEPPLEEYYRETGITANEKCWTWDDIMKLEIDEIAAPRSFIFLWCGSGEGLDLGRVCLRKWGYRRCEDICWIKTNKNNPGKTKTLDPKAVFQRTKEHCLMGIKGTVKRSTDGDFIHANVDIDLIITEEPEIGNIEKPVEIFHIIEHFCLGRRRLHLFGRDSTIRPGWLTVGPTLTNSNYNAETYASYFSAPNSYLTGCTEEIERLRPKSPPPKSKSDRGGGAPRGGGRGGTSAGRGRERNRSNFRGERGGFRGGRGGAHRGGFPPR

With `OC[C@H]1O[C@@H](n2cnc3c(NCc4ccc(O)cc4)ncnc32)[C@H](O)[C@@H]1O` [Compound 3] the “improved IC50, fold” value [1] was about 2 × and the “tighter binding in KD, fold” value ([2]; compared to compound 2) was 2.6 ×.

For `CC(C)(C)OC(=O)N1CCC2(CCN(c3ncnc4c3ncn4[C@@H]3O[C@H](CO)[C@@H](O)[C@H]3O)CC2)C1` [Compound 41, tert-Butyl-8-(9-((2R,3R,4S,5R)-3,4-dihydroxy-5-(hydroxymethyl)tetrahydrofuran-2-yl)-9H-purin-6-yl)-2,8-diazaspiro[4.5]decane-2-carboxylate], the CamA inhibition [1] was “loss of inhibition” and the “relative inhibition of CamA activity” value [1] was “loss of inhibition”.

In the case of `OC[C@H]1O[C@@H](n2cnc3c(NCCCC4CCNCC4)ncnc32)[C@H](O)[C@@H]1O` [Compound 42, (2R,3S,4R,5R)-2-(Hydroxymethyl)-5-(6-((3-(piperidin-4-yl)propyl)amino)-9H-purin-9-yl)tetrahydrofuran-3,4-diol], the “lower potency in inhibiting CamA, fold” value [1] is reported as about 10 fold.

With `CC(C)(C)OC(=O)NCCC1CCN(c2ncnc3c2ncn3[C@@H]2O[C@H](CO)[C@@H](O)[C@H]2O)CC1` [Compound 40, tert-Butyl-(2-(1-(9-((2R,3R,4S,5R)-3,4-dihydroxy-5-(hydroxymethyl)tetrahydrofuran-2-yl)-9H-purin-6-yl)piperidin-4-yl)ethyl)carbamate] the CamA inhibition [1] was “loss of inhibition” and the “relative inhibition of CamA activity” value [1] was “loss of inhibition”.

`Nc1ncnc2c1ncn2[C@@H]1O[C@H](CSCC[C@H](N)C(=O)O)[C@@H](O)[C@H]1O` [SAH, S-adenosyl-L-homocysteine, reference compound] was tested, and the “inhibition of PRMT1” value [3] was “exhibited measurable inhibition”, the “inhibition of DOT1L” value [4] was “exhibited measurable inhibition” and the “inhibition of G9a” value [5] was “exhibited measurable inhibition”.

For `OC[C@H]1O[C@@H](n2cnc3c(NC4CCCC4)ncnc32)[C@H](O)[C@@H]1O` [N^6-cyclopentyladenosine, reference compound], the “inhibition of control radioligand specific binding, A1AR” value [6] was “completely abolished radioligand binding”.

With `OC[C@H]1O[C@@H](n2cnc3c(NCCCCCCc4ccccc4)ncnc32)[C@H](O)[C@@H]1O` [Compound 21, (2R,3S,4R,5R)-2-(Hydroxymethyl)-5-(6-((6-phenylhexyl)amino)-9H-purin-9-yl)tetrahydrofuran-3,4-diol] the “relative inhibition of CamA activity” value [1] was “decreased the inhibition potency”.

For `CC(C)N(CCCNC(=O)Nc1ccc(C(C)(C)C)cc1)C[C@H]1O[C@@H](n2cc(Br)c3c(N)ncnc32)[C@H](O)[C@@H]1O` [SGC0946, reference compound], the “inhibition of CamA activity” value [1] was “inhibits CamA activity completely”, the “stronger inhibition, fold in IC50” value [1] was about 9 × and the “improved binding, fold in KD” value ([2]; vs EPZ004777) was about 3 ×.

`OC[C@H]1O[C@@H](n2cnc3c(NCCCc4ccccc4)ncnc32)[C@H](O)[C@@H]1O` [Compound 14, (2R,3S,4R,5R)-2-(Hydroxymethyl)-5-(6-((3-phenylpropyl)amino)-9H-purin-9-yl)tetrahydrofuran-3,4-diol] was tested, and the “lower IC50 value, fold” value [1] was about 21 × and the “lower KD value, fold” value ([2]; compared to compound 1) was about 26 ×.

“5′-methylthioadenosine [MTA, reference compound]” was tested, and the “enhanced binding, fold” value ([2]; compared to sinefungin) was about 2 × and the “stronger binding, fold” value ([2]; than adenosine) was over 7 ×.

In the case of `O=C(NCc1cn2cc(CNCC3CCCCC3)ccc2n1)c1cc(=O)n2ccccc2n1` [STM2457, reference compound], the “inhibition of MettL3-MettL14” value [7] is reported as “inhibited” and the “effect on CamA activity” value [1] is reported as “had no effect on CamA activity”.

With `Nc1ncnc2c1ncn2[C@@H]1O[C@H](C[C@@H](N)CC[C@H](N)C(=O)O)[C@@H](O)[C@H]1O` [sinefungin, reference compound] the “inhibition of PCIF1” value [8] was “showed measurable inhibition”, the “inhibition of CcrM” value [9] was “showed measurable inhibition” and the “inhibition of Dam” value [10] was “showed measurable inhibition”. For the same compound, the “inhibition of Dnmt3a-Dnmt3L” value [11] was “showed measurable inhibition” and the “effect on CamA activity” value [1] was “inhibiting CamA”.

With `Nc1ccc(CCCNc2ncnc3c2ncn3[C@@H]2O[C@H](CO)[C@@H](O)[C@H]2O)cc1` [Compound 15, (2R,3R,4S,5R)-2-(6-((3-(4-Aminophenyl)propyl)amino)-9H-purin-9-yl)-5-(hydroxymethyl)tetrahydrofuran-3,4-diol] the “enhanced binding, fold” value ([2]; compared to 2 and 9) was 9–12 ×.
